PubChem BioAssay AID302 (DTP/NCI, 2004)
Toxic doses and inconclusive results are not listed. How the source made its calls: active means survival T/C of 150% or more; inactive means T/C below 125% in these data.

Test system: BALB/c mice, Madison 109 lung carcinoma i.m., survival
Test: NCI In Vivo Anticancer Drug Screen. Data for tumor model Madison 109 Lung Carcinoma (intramuscular) in BALB/CM mice
Settings: endpoint: median survival time, higher = longer survival
Protocol: The antitumor activity of compounds was measured in mice bearing transplantable tumors. Survival or tumor size were measured and the results are expressed as the measurement made in the treated group (T) divided by the measurement made in the vehicle treated control group (C). The tumor model used in this assay is Madison 109 Lung Carcinoma (intramuscular) in BALB/CM mice

Measured: T/C

O=[N+]([O-])c1ccc(Cl)c([N+](=O)[O-])c1
inactive: dose: 5.0 mg/kg/injection, schedule: Q01DX009 (ip), vehicle: saline with Tween-80 102 % of control | dose: 6.25 mg/kg/injection, schedule: Q02DX009 (ip), vehicle: water 117 % of control | dose: 10.0 mg/kg/injection, schedule: Q01DX009 (ip), vehicle: saline with Tween-80 100 % of control | dose: 12.5 mg/kg/injection, schedule: Q02DX009 (ip), vehicle: water 113 % of control | dose: 20.0 mg/kg/injection, schedule: Q01DX009 (ip), vehicle: saline with Tween-80 93 % of control | dose: 25.0 mg/kg/injection, schedule: Q02DX009 (ip), vehicle: water 113 % of control | dose: 40.0 mg/kg/injection, schedule: Q01DX009 (ip), vehicle: saline with Tween-80 105 % of control | dose: 50.0 mg/kg/injection, schedule: Q02DX009 (ip), vehicle: water 107 % of control | dose: 80.0 mg/kg/injection, schedule: Q01DX009 (ip), vehicle: saline with Tween-80 111 % of control | dose: 100.0 mg/kg/injection, schedule: Q02DX009 (ip), vehicle: water 107 % of control
